In patent publication US20040141992A1, “Desensitizers” (priority 2001, published 2004):
Read-outs that look alike come from different tables or passages of the source. No end group written: not given here.

Columns and labels:
healthy volunteers = assay: Allergic skin test (intradermal injection, flare size) in healthy volunteers; type: in vivo, human; conditions: for positive skin reaction, number of cases: among 41 or 42 cases of healthy volunteers
Description: Therefore, it was investigated whether an allergic reaction to a peptide derived from the above self-antigen would also be observed in healthy volunteers. Skin tests were carried out with respect to self-derived tumor rejection antigen peptides capable of inducing cytotoxic T cells for 42 cases of healthy volunteers whose age ranges from 19 years old to 54 years old (mean age 29.2 years). For testing an allergic skin reaction, 10 μg of each peptide (50 μl volume) was intradermally injected, and evaluation was carried out 15 minutes after the injection. The results are summarized in Tables 1 to 4, wherein ‘NT’ and ‘S. T’ mean ‘not tested’ and ‘skin test’, respectively. −: longest diameter (D) of flare […] +: 10 mm≦D<30 mm ++: 30 mm≦D<50 mm +++: 50 mm≦D

cancer patients [1] = assay: Skin test by pre-vaccination before phase I clinical trial in cancer patients
cancer patients [2] = conditions: human, in vivo
[3] = test system: skin reaction and serum IgE level against CypB84; assay: Phase I clinical trial of peptide vaccine using CypB91 in lung cancer patient; type: in vivo, human
Description: The phase I clinical trial of a peptide vaccine using CypB91 was carried out on a lung cancer patient whose skin reaction and serum IgE level against CypB84 were positive in the above allergic skin test. The skin reaction and serum IgE level against CypB91 of the patient were negative. […] A skin reaction and a serum […] level against CypB91 even after 3 times administration of CypB91 were substantially the same as those before administration, i.e., negative (FIG. 1B).

[4] = test system: skin reaction and serum IgE level against ART413; conditions: human, in vivo
Description: The phase I clinical trial with ART475 was carried out on an ovarian cancer patient whose skin reaction against ART413 was positive. With respect to the patient, a skin reaction against ART475 was negative, and a specific IgE level in serum against ART413 and ART475 was low. […] Namely, an allergic reaction and a specific IgE level in serum against ART413 were reduced by administration of ART475.

[5] = test system: skin reaction and serum IgE level against SART3315; conditions: human, in vivo
Description: The phase I clinical test using SART3109 was carried out on a colon cancer patient whose skin reaction against SART3315 was positive. With respect to the patient, a skin reaction against SART3109 was negative, and a specific IgE level in serum against SART3315 and SART3109 was low. […] Although a SART3109-specific IgE level in serum was increased by administration of SART3109, skin reactions before and after administration of the same were negative (FIG. 1F). Namely, an allergic reaction and the specific IgE level in serum against SART3315 were reduced by administration of SART3109.

[6] = positive donors / donors tested, healthy volunteers

| Substance | positive skin reaction, percent of healthy volunteers (healthy volunteers; healthy volunteers) | S. T positive rate (healthy volunteers; [6]) | positive skin reaction, number of cases (healthy volunteers) | other results |
| --- | --- | --- | --- | --- |
| AFLRHAAL [ART413, AFLRHAAL] | 95% | 39/41 |  | allergic skin reaction (cancer patients [1]; ovarian cancer patients): elicited an allergic skin reaction |
| CypB84F-Y: peptide obtained by partially modifying CypB84: phenylalanine (F) at the 2nd position replaced with tyrosine (Y) (KYHRVIKDF; Peptide consisting of 9 amino acid residues from the 84th residue to the 92nd residue of cyclophillin B) |  |  |  | immediate hypersensitivity skin reactions elicited (cancer patients [2]): eight of ten |
| CypB91-2F-Y: peptide obtained by replacing phenylalanine at the 2nd position of CypB91 with tyrosine (DYMIQGGDF; Designed peptide based on the peptide consisting of 9 amino acid residues from the 91st residue to the 99th residue of cyclophillin B) |  |  |  | inhibition of skin reaction and specific IgE level against CypB84, number of cases ([3]; among 10 cases tested, vaccination of CypB91 or CypB91-2F-Y): 9 cases |
| DFMIQGGDF [CypB91, DFMIQGGDF] |  |  |  | skin reaction against CypB91 ([3]; after 3 times administration of CypB91): negative; S. T positive rate (healthy volunteers; human, in vivo): 0/42 |
| DYPSLSATDI [ART475, DYPSLSATDI] |  | 1/41 |  | ART475-specific IgE level in serum [4]: gradually increased; skin reaction against ART475 [4]: negative |
| KFHRVIKDF [CypB84, KFHRVIKDF] | 95% | 40/42 | 40 cases | immediate hypersensitivity skin reactions elicited (cancer patients [1]; pre-vaccinated lung-cancer patients): eight of ten |

Second part, led by results:

| positive skin reaction, percent of healthy volunteers (healthy volunteers; healthy volunteers) | S. T positive rate (healthy volunteers; [6]) | positive skin reaction, number of cases (healthy volunteers) | Substance | other results |
| --- | --- | --- | --- | --- |
|  | 0/42 |  | AYDFLYNYL [SART2161, AYDFLYNYL] | S. T (skin test, size of inflammatory flare) (healthy volunteers; individual healthy donors, 10 μg peptide intradermally, evaluated 15 minutes after injection): − (longest diameter (D) of flare <30 mm) |
| 44% | 18/41 | 18 cases | AYIDFEMKI [SART3315, AYIDFEMKI] |  |
| 24% | 10/41 | 10 cases | SYTRLFLIL [SART2899, SYTRLFLIL] |  |
| 17% | 7/42 | 7 cases | VYDYNCHVDL [SART3109, VYDYNCHVDL] | SART3109-specific IgE level in serum [5]: increased; skin reactions against SART3109 [5]: negative |
